# Key:
# [1] = molecular target: Casein kinase II subunit alpha (Homo sapiens) (UniProt P68400); experiment: Inhibition of human CK2alpha using RRRDDDSDDD peptide substrate at 20 uM by P81 filter-binding assay; parameters: scale not given: the % may be the effect or the level left
# [2] = molecular target: Casein kinase II subunit alpha (Homo sapiens) (UniProt P68400); experiment: Inhibition of human CK2alpha using RRRDDDSDDD peptide substrate at 200 uM by P81 filter-binding assay; parameters: scale not given: the % may be the effect or the level left
# MCF7 [3] = experiment: Anticancer activity against human MCF7 cells assessed as cell viability at 12.5 uM after 24 hrs by MTT assay; type: functional; conditions: MCF7, 24 h, read-out: Activity
# MCF7 [4] = experiment: Anticancer activity against human MCF7 cells assessed as cell viability at 25 uM after 24 hrs by MTT assay; type: functional; conditions: MCF7, 24 h, read-out: Activity
# MCF7 [5] = experiment: Anticancer activity against human MCF7 cells assessed as cell viability at 50 uM after 24 hrs by MTT assay; type: functional; conditions: MCF7, 24 h, read-out: Activity
# MCF7 [6] = experiment: Anticancer activity against human MCF7 cells assessed as cell viability at 100 uM after 24 hrs by MTT assay; type: functional; conditions: MCF7, 24 h, read-out: Activity
# MCF7 [7] = experiment: Anticancer activity against human MCF7 cells assessed as cell viability at 12.5 uM after 48 hrs by MTT assay; type: functional; conditions: MCF7, 48 h, read-out: Activity
# MCF7 [8] = experiment: Anticancer activity against human MCF7 cells assessed as cell viability at 25 uM after 48 hrs by MTT assay; type: functional; conditions: MCF7, 48 h, read-out: Activity
# MCF7 [9] = experiment: Anticancer activity against human MCF7 cells assessed as cell viability at 50 uM after 48 hrs by MTT assay; type: functional; conditions: MCF7, 48 h, read-out: Activity
# MCF7 [10] = experiment: Anticancer activity against human MCF7 cells assessed as cell viability at 100 uM after 48 hrs by MTT assay; type: functional; conditions: MCF7, 48 h, read-out: Activity
# CCRF-CEM [11] = experiment: Anticancer activity against human CCRF-CEM cells assessed as cell viability at 12.5 uM after 24 hrs by MTT assay; type: functional; conditions: read-out: Activity
# CCRF-CEM [12] = experiment: Anticancer activity against human CCRF-CEM cells assessed as cell viability at 25 uM after 24 hrs by MTT assay; type: functional; conditions: read-out: Activity
# CCRF-CEM [13] = experiment: Anticancer activity against human CCRF-CEM cells assessed as cell viability at 50 uM after 24 hrs by MTT assay; type: functional; conditions: read-out: Activity
# CCRF-CEM [14] = experiment: Anticancer activity against human CCRF-CEM cells assessed as cell viability at 100 uM after 24 hrs by MTT assay; type: functional; conditions: read-out: Activity
# CCRF-CEM [15] = experiment: Anticancer activity against human CCRF-CEM cells assessed as cell viability at 12.5 uM after 48 hrs by MTT assay; type: functional; conditions: read-out: Activity
# CCRF-CEM [16] = experiment: Anticancer activity against human CCRF-CEM cells assessed as cell viability at 25 uM after 48 hrs by MTT assay; type: functional; conditions: read-out: Activity
# CCRF-CEM [17] = experiment: Anticancer activity against human CCRF-CEM cells assessed as cell viability at 50 uM after 48 hrs by MTT assay; type: functional; conditions: read-out: Activity
# CCRF-CEM [18] = experiment: Anticancer activity against human CCRF-CEM cells assessed as cell viability at 100 uM after 48 hrs by MTT assay; type: functional; conditions: read-out: Activity
# Chain of Casein kinase II subunit alpha (Homo sapiens) (P68400 whole entry, looked up): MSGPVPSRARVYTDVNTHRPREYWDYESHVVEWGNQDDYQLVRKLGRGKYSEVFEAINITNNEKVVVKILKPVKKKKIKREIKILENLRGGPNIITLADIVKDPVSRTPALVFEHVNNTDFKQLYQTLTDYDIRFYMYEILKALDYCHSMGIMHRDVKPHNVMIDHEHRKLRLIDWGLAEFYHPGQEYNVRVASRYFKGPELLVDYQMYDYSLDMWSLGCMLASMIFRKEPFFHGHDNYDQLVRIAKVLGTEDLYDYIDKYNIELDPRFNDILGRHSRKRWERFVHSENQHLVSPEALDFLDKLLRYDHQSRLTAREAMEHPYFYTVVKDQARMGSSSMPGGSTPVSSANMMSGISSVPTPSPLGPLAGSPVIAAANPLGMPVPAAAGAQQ
Structure (SMILES),Activity [1] [%],Activity [2] [%],viability at 12.5 µM (MCF7 [3]) [%],viability at 25 µM (MCF7 [4]) [%],viability at 50 µM (MCF7 [5]) [%],viability at 100 µM (MCF7 [6]) [%],viability at 12.5 µM (MCF7 [7]) [%],viability at 25 µM (MCF7 [8]) [%],viability at 50 µM (MCF7 [9]) [%],viability at 100 µM (MCF7 [10]) [%],viability at 12.5 µM (CCRF-CEM [11]) [%],viability at 25 µM (CCRF-CEM [12]) [%],viability at 50 µM (CCRF-CEM [13]) [%],viability at 100 µM (CCRF-CEM [14]) [%],viability at 12.5 µM (CCRF-CEM [15]) [%],viability at 25 µM (CCRF-CEM [16]) [%],viability at 50 µM (CCRF-CEM [17]) [%],viability at 100 µM (CCRF-CEM [18]) [%]
C[C@H](O)CCn1nc2c(Br)c(Br)c(Br)c(Br)c2n1,–,–,112,102,105,31,100,89,87,6,126,112,86,36,92,89,42,10
Brc1c(Br)c(Br)c2[nH]nnc2c1Br [TETRABROMOBENZOTRIAZOLE],–,–,111,108,120,109,–,–,–,–,115,105,118,61,–,–,–,–
CC(O)Cn1nc2c(Br)c(Br)c(Br)c(Br)c2n1 (racemic),–,–,118,96,60,15,99,83,16,6,125,102,108,9,83,78,53,0
C[C@@H](O)CCn1nc2c(Br)c(Br)c(Br)c(Br)c2n1,–,–,109,105,102,18,86,77,64,0,88,81,69,36,94,71,23,24
OCC(O)Cn1nc2c(Br)c(Br)c(Br)c(Br)c2n1 (racemic),–,–,145,156,98,53,116,111,109,8,78,89,47,8,60,56,27,1
CC(O)CCn1nc2c(Br)c(Br)c(Br)c(Br)c2n1 (racemic),–,–,99,102,90,57,79,73,76,0,106,113,89,3,94,86,45,0
C[C@H](O)Cn1nc2c(Br)c(Br)c(Br)c(Br)c2n1,–,–,119,67,58,25,101,64,10,8,104,104,72,9,105,92,58,0

# The next lines start with results.
Activity [1] [%],Activity [2] [%],Structure (SMILES),viability at 12.5 µM (MCF7 [3]) [%],viability at 25 µM (MCF7 [4]) [%],viability at 50 µM (MCF7 [5]) [%],viability at 100 µM (MCF7 [6]) [%],viability at 12.5 µM (MCF7 [7]) [%],viability at 25 µM (MCF7 [8]) [%],viability at 50 µM (MCF7 [9]) [%],viability at 100 µM (MCF7 [10]) [%],viability at 12.5 µM (CCRF-CEM [11]) [%],viability at 25 µM (CCRF-CEM [12]) [%],viability at 50 µM (CCRF-CEM [13]) [%],viability at 100 µM (CCRF-CEM [14]) [%],viability at 12.5 µM (CCRF-CEM [15]) [%],viability at 25 µM (CCRF-CEM [16]) [%],viability at 50 µM (CCRF-CEM [17]) [%],viability at 100 µM (CCRF-CEM [18]) [%]
93,31.1,OC(CCn1nc2c(Br)c(Br)c(Br)c(Br)c2n1)c1ccccc1 (racemic),115,99,28,13,113,105,23,0,122,123,66,21,89,84,0,0
95.1,87.5,COc1cccc(C(O)CCn2nc3c(Br)c(Br)c(Br)c(Br)c3n2)c1 (stereo not given),121,71,22,16,97,96,20,6,110,106,58,48,96,50,2,2
91.4,35.4,OC(CCn1nc2c(Br)c(Br)c(Br)c(Br)c2n1)c1ccc(F)cc1 (stereo not given),116,101,16,0,109,97,7,0,110,104,46,0,101,88,0,0
95.6,45.4,OC(CCn1nc2c(Br)c(Br)c(Br)c(Br)c2n1)c1ccc(Cl)cc1 (stereo not given),90,96,19,0,100,92,9,0,105,106,56,0,93,69,0,0
97.4,33.5,OC(CCn1nc2c(Br)c(Br)c(Br)c(Br)c2n1)c1ccc(Br)cc1 (stereo not given),82,59,10,0,107,105,15,0,101,109,58,0,89,69,0,0
96.6,43.4,OC(CCn1nc2c(Br)c(Br)c(Br)c(Br)c2n1)c1cccc(Br)c1 (stereo not given),81,52,14,1,102,106,11,0,102,123,54,0,118,54,0,0
74.9,23.8,OC(CCn1nc2c(Br)c(Br)c(Br)c(Br)c2n1)c1cccc(Cl)c1 (stereo not given),97,96,28,0,107,101,12,0.5,110,118,71,0,70,68,0,0

# Reference: ChEMBL document CHEMBL3351930, “Synthesis of novel chiral TBBt derivatives with hydroxyl moiety. Studies on inhibition of human protein kinase CK2α and cytotoxicity properties” (Eur J Med Chem, 2014)
